In US6632616B2, “Compounds that selectively bind to expanded polyglutamine repeat domains and methods of use thereof” (Duke University, priority 2000, dated 2003):

Assays:
Q81-YFP = assay: Peptides added to transfected COS 7 cells expressing Q81-YFP: aggregation; type: cell-based; settings: peptide added to cells
Excerpt: (§1) Several proteins can ferry peptides or proteins into cells through the plasma membrane including HIV transactivator protein (TAT) (SEQ ID NO:37), antennapedia (SEQ ID NO:38), and herpes simplex virus type 1 protein 22 (SEQ ID NO:39) (Prochiantz, Curr Opin Cell Biol. 12:400-406 (2000)). […] The arginine-rich domains of these proteins are sufficient to transport some intact proteins even when fused to non-native proteins. The ability of polyglutamine-binding peptides fused to a TAT fragment to enter transfected COS 7 cells and inhibit polyglutamine aggregation and cell death was examined.

[1] = tested on: COS 7 cells expressing Q81-YFP; assay: Peptides added to transfected COS 7 cells expressing Q81-YFP: cell death; type: cell-based; settings: peptide added to cells
Excerpt: as §1

polyglutamine = assay: In vitro polyglutamine aggregation, polyarginine transport peptide; type: biochemical

Q81-YFP, sequence (as listed by the source): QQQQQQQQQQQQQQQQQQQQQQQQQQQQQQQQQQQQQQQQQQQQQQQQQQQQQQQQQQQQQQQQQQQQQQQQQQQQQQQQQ

WKWWPGIFD-GGRRRRRRRR (WKWWPGIFDGGRRRRRRRR)
inhibits: effect on aggregation in cells (in words) (Q81-YFP) | effect on cell death (in words) [1] | inhibition of in vitro polyglutamine aggregation (polyglutamine)
